Assay results as given in ChEMBL document CHEMBL1140971, “Synthesis of new 4-pyrrol-1-yl benzoic acid hydrazide analogs and some derived oxadiazole, triazole and pyrrole ring systems: a novel class of potential antibacterial and antitubercular agents” (2008).
Converted amounts (≈) assume the structure as drawn.

What was measured:
Assay type in all cases: functional
Enterococcus faecalis = assay: Antibacterial activity against Streptococcus faecalis ATCC 14506 after 18 hrs by broth microdilution method; details: ATCC 14506, 18 h
Klebsiella pneumoniae = assay: Antibacterial activity against Klebsiella pneumoniae ATCC 10031 after 18 hrs by broth microdilution method; details: ATCC 10031, 18 h
Escherichia coli = assay: Antibacterial activity against Escherichia coli ATCC 10536 after 18 hrs by broth microdilution method; details: ATCC 10536, 18 h
Pseudomonas aeruginosa = assay: Antibacterial activity against Pseudomonas aeruginosa ATCC 10145 after 18 hrs by broth microdilution method; details: ATCC 10145, 18 h
Bacillus subtilis = assay: Antibacterial activity against Bacillus subtilis ATCC 60511 after 18 hrs by broth microdilution method; details: ATCC 60511, 18 h
Staphylococcus aureus = assay: Antibacterial activity against Staphylococcus aureus ATCC 11632 after 18 hrs by broth microdilution method; details: ATCC 11632, 18 h
[1] = test system: Mycobacterium tuberculosis; assay: Antitubercular activity against Mycobacterium tuberculosis H37Rv after 21 days by broth dilution assay; details: 504 h

SMILES | MIC (Enterococcus faecalis) [µg/mL] | MIC (Klebsiella pneumoniae) [µg/mL] | MIC (Escherichia coli) [µg/mL] | MIC (Pseudomonas aeruginosa) [µg/mL] | MIC (Bacillus subtilis) [µg/mL] | MIC (Staphylococcus aureus) [µg/mL] | MIC [1] [µg/mL]
CCn1cc(C(=O)O)c(=O)c2cc(F)c(N3CCNCC3)cc21 [NORFLOXACIN] | < 5 | ≤ 1 | ≤ 1 | > 5 | ≤ 1 | < 5 | 
CC(=O)N1N=C(c2ccc(-n3cccc3)cc2)OC1c1ccccc1 (stereo not drawn) | 125 (≈ 377 µM) | 62.5 (≈ 189 µM) | 125 (≈ 377 µM) | 62.5 (≈ 189 µM) | 62.5 (≈ 189 µM) | 250 (≈ 754 µM) | 31.2 (≈ 94.3 µM)
O=C(O)c1cn(C2CC2)c2cc(N3CCNCC3)c(F)cc2c1=O [CIPROFLOXACIN] | < 5 | ≤ 1 | ≤ 1 | > 5 | ≤ 1 | < 5 | 
O=C(N/N=C/c1ccccc1)c1ccc(-n2cccc2)cc1 | 250 (≈ 864 µM) | 125 (≈ 432 µM) | 125 (≈ 432 µM) | 125 (≈ 432 µM) | 125 (≈ 432 µM) | 250 (≈ 864 µM) | 125 (≈ 432 µM)
O=C(N/N=C/c1ccc(O)cc1)c1ccc(-n2cccc2)cc1 | 125 (≈ 409 µM) | 125 (≈ 409 µM) | 62.5 (≈ 205 µM) | 62.5 (≈ 205 µM) | 62.5 (≈ 205 µM) | 125 (≈ 409 µM) | 31.2 (≈ 102 µM)
Cc1ccc(C)n1NC(=O)c1ccc(-n2cccc2)cc1 | 125 (≈ 447 µM) | 250 (≈ 895 µM) | 125 (≈ 447 µM) | 62.5 (≈ 224 µM) | 62.5 (≈ 224 µM) | 250 (≈ 895 µM) | 31.2 (≈ 112 µM)
O=C(N/N=C/c1cccc([N+](=O)[O-])c1)c1ccc(-n2cccc2)cc1 | 500 (≈ 1500 µM) | 500 (≈ 1500 µM) | 500 (≈ 1500 µM) | 62.5 (≈ 187 µM) | 250 (≈ 748 µM) | 500 (≈ 1500 µM) | 62.5 (≈ 187 µM)
Sc1nnc(-c2ccc(-n3cccc3)cc2)o1 | 31.2 (≈ 128 µM) | 125 (≈ 514 µM) | 31.2 (≈ 128 µM) | 31.2 (≈ 128 µM) | 8 (≈ 32.9 µM) | 250 (≈ 1030 µM) | 16 (≈ 65.8 µM)
O=C(N/N=C/c1c(Cl)cccc1Cl)c1ccc(-n2cccc2)cc1 | 125 (≈ 349 µM) | 125 (≈ 349 µM) | 62.5 (≈ 174 µM) | 62.5 (≈ 174 µM) | 62.5 (≈ 174 µM) | 125 (≈ 349 µM) | 31.2 (≈ 87.2 µM)
NNC(=O)c1ccc(-n2cccc2)cc1 | 31.2 (≈ 155 µM) | 125 (≈ 621 µM) | 125 (≈ 621 µM) | 62.5 (≈ 311 µM) | 8 (≈ 39.8 µM) | 250 (≈ 1240 µM) | 125 (≈ 621 µM)
CC(C)=NNC(=O)c1ccc(-n2cccc2)cc1 | 125 (≈ 518 µM) | 250 (≈ 1040 µM) | 125 (≈ 518 µM) | 62.5 (≈ 259 µM) | 62.5 (≈ 259 µM) | 250 (≈ 1040 µM) | 62.5 (≈ 259 µM)
C/C(=N\NC(=O)c1ccc(-n2cccc2)cc1)c1ccccc1 | 125 (≈ 412 µM) | 125 (≈ 412 µM) | 125 (≈ 412 µM) | 62.5 (≈ 206 µM) | 62.5 (≈ 206 µM) | 250 (≈ 824 µM) | 62.5 (≈ 206 µM)
Nn1c(-c2ccc(-n3cccc3)cc2)n[nH]c1=S | 250 (≈ 972 µM) | 125 (≈ 486 µM) | 500 (≈ 1940 µM) | 125 (≈ 486 µM) | 125 (≈ 486 µM) | 500 (≈ 1940 µM) | 62.5 (≈ 243 µM)
CN(C)c1ccc(/C=N/NC(=O)c2ccc(-n3cccc3)cc2)cc1 | 125 (≈ 376 µM) | 125 (≈ 376 µM) | 250 (≈ 752 µM) | 125 (≈ 376 µM) | 125 (≈ 376 µM) | 250 (≈ 752 µM) | 62.5 (≈ 188 µM)
O=C(NN=C(c1ccccc1)c1ccccc1)c1ccc(-n2cccc2)cc1 | 250 (≈ 684 µM) | 125 (≈ 342 µM) | 125 (≈ 342 µM) | 62.5 (≈ 171 µM) | 62.5 (≈ 171 µM) | 500 (≈ 1370 µM) | 62.5 (≈ 171 µM)
CC(=O)N1N=C(c2ccc(-n3cccc3)cc2)OC1c1c(Cl)cccc1Cl (stereo not drawn) | 62.5 (≈ 156 µM) | 62.5 (≈ 156 µM) | 62.5 (≈ 156 µM) | 31.2 (≈ 78.1 µM) | 31.2 (≈ 78.1 µM) | 62.5 (≈ 156 µM) | 31.2 (≈ 78.1 µM)
NNC(=O)c1ccncc1 [ISONIAZID] |  |  |  |  |  |  | 0.25 (≈ 1.82 µM)
CC(=O)NNC(=O)c1ccc(-n2cccc2)cc1 | 250 (≈ 1030 µM) | 125 (≈ 514 µM) | 500 (≈ 2060 µM) | 62.5 (≈ 257 µM) | 62.5 (≈ 257 µM) | 500 (≈ 2060 µM) | 62.5 (≈ 257 µM)
